Consider seven compounds from ChEMBL document CHEMBL2062395, “Avicholic Acid: A Lead Compound from Birds on the Route to Potent TGR5 Modulators” (ACS Med Chem Lett, 2012).

Bounds are passed on as bounds.

For data set [1], the target named is T1, G-protein coupled bile acid receptor 1 (Homo sapiens, UniProt Q8TDU6).
T1 sequence (Q8TDU6 whole entry): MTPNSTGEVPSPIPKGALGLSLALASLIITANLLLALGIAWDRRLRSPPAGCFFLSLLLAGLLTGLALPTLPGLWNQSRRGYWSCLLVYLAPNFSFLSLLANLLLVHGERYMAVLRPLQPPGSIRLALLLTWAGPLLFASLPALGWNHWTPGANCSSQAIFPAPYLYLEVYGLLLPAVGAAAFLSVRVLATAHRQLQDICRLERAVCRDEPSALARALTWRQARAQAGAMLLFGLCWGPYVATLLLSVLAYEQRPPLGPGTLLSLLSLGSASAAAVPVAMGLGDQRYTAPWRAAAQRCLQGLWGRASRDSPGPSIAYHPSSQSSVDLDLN
Briefly: Agonist activity at TGR5 expressed in NCI-H716 cells assessed as cAMP level after 60 mins by FRET analysis. In kind it is functional, cell-based. A general note: Cyclic AMP is a second messenger, typically raised through Gs and lowered through Gi signalling.

A further data set concerns the target T2, Bile acid receptor (Homo sapiens, UniProt Q96RI1).
T2 sequence (Q96RI1 whole entry): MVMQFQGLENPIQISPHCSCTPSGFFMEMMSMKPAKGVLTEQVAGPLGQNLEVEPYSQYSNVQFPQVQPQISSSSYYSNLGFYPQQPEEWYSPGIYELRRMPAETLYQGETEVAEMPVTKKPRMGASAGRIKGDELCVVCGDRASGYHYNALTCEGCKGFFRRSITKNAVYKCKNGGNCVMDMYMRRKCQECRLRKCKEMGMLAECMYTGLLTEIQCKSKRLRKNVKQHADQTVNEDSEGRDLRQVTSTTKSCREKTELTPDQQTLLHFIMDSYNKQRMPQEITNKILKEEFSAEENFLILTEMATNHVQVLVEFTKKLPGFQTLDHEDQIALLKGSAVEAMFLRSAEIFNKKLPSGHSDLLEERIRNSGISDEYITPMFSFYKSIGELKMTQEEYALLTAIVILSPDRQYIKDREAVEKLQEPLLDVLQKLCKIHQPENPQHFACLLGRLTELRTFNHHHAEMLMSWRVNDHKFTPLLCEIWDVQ
Briefly: Agonist activity at GST-tagged FXR-LBD using biotinylated-SRC-1 peptide as substrate preincubated with compound for 30 mins measured after 4 hrs. It counts as functional.

Another data set has as its target Albumin (Homo sapiens, UniProt P02768). The data set is described as follows: Binding affinity to albumin by equilibrium dialysis. Also noted: concentration or dose not given beside the values. In kind it is ADME. Conditions: isolated protein; call rule not given here.
The nature of data set [2]: Critical micelle concentration of the compound in 0.15 M NaCl water solution. The settings on record: buffer. It counts as physicochemical.
Data set [3] is described as follows: 1-Octanol/water partition coefficient, log P of the compound by conventional shake-flask method. It counts as physicochemical.
The nature of data set [4]: Aqueous solubility of the compound in 0.1 M HCl water at […] by HPLC-ES-MS/MS. In kind it is physicochemical.
A further data set has as its system Liver. Briefly: Drug metabolism in mouse liver assessed as taurine conjugate formation. It counts as ADME, tissue-based.
Setting [5] is: 1-octanol/water, read-out: logP.

Sequence of Albumin (P02768 whole entry): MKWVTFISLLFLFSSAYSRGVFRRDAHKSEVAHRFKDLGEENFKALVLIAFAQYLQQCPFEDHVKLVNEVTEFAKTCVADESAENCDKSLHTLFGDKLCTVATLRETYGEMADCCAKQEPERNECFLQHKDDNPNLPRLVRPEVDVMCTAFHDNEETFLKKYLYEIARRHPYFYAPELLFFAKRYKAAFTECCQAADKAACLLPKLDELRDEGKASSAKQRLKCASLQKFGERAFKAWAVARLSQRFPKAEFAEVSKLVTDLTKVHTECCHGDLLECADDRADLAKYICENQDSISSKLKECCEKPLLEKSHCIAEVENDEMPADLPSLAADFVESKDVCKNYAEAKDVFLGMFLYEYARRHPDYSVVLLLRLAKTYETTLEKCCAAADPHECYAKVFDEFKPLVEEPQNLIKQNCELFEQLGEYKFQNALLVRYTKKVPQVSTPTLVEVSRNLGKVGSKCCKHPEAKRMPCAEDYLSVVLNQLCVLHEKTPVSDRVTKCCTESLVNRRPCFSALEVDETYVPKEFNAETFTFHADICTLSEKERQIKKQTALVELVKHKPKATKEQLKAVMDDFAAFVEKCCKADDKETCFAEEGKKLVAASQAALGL

Consider `C[C@H](CCC(=O)O)[C@H]1[C@@H](O)C[C@H]2[C@@H]3[C@H](O)C[C@@H]4C[C@H](O)CC[C@]4(C)[C@H]3CC[C@]12C`, for which the figures for the EC50 (in data set [1]; at Bile acid receptor) were 25 µM and 55 µM, respectively.
As for `CC[C@H]1[C@@H](O)[C@@H]2[C@H](CC[C@]3(C)[C@@H]([C@H](C)CCC(=O)O)[C@H](O)C[C@@H]23)[C@@]2(C)CC[C@@H](O)C[C@@H]12`, the figures for the EC50 (in data set [1]; at Bile acid receptor) were 87 µM and 22 µM, respectively.
Regarding `CC[C@H]1[C@@H](O)[C@@H]2[C@H](CC[C@]3(C)[C@@H]([C@H](C)CCC(=O)[O-])[C@@H](O)C[C@@H]23)[C@@]2(C)CC[C@@H](O)C[C@@H]12.[Na+]`, the values for the EC50 (in data set [1]; on Bile acid receptor) were 0.65 µM and 11.5 µM, respectively. This compound also showed an Activity at Albumin of 83%. Further, the CMC in data set [2] was 5.9 mM. In data set [3] (setting [5]), the logP is 1.6. For the same compound, the concentration in solution in data set [4] (solubility) came to 120 µM. For the same compound, the Drug metabolism result with Liver is listed as “Active”.
At Albumin, `CC[C@H]1[C@@H](O)[C@@H]2[C@H](C[C@H](O)[C@]3(C)[C@@H]([C@H](C)C[C@H](C)C(=O)O)CC[C@@H]23)[C@@]2(C)CC[C@@H](O)C[C@@H]12` showed an Activity of 62%. This compound also returned a CMC in data set [2] of 2 mM. Also, the logP in data set [3] (setting [5]) turned out to be 1.4.
For the compound `C[C@H](CCC(=O)[O-])[C@H]1[C@H](O)C[C@H]2[C@@H]3[C@H](O)C[C@@H]4C[C@H](O)CC[C@]4(C)[C@H]3CC[C@]12C.[Na+]` [AVICHOLIC ACID SODIUM SALT], the EC50 in data set [1] is 160 µM; at Bile acid receptor it was greater than 100 µM. The Activity at Albumin was 58%. In data set [2], this compound yielded a CMC of 10 mM. Also, the log partition coefficient (logP) in data set [3] (setting [5]) is 1.1. The compound further had a solubility in data set [4] of 188 µM.
`C[C@H](CCC(=O)O)[C@H]1CC[C@H]2[C@@H]3[C@H](O)C[C@@H]4C[C@H](O)CC[C@]4(C)[C@H]3CC[C@]12C` [CHENODIOL] showed an Activity on Albumin of 93%. Moreover, the CMC in data set [2] was 3 mM. Further, the logP in data set [3] (octanol/water) amounted to 2.2.
Regarding `C[C@H](CCC(=O)O)[C@H]1CC[C@H]2[C@@H]3[C@H](O)C[C@@H]4C[C@H](O)CC[C@]4(C)[C@H]3C[C@H](O)[C@]12C` [CHOLIC ACID], at Albumin, the Activity was determined as 50%. This compound also came in with a CMC in data set [2] of 9.2 mM.

What is called EC50 is the concentration that produces a half-maximal response. What is called logP is a log measure of how a compound divides between an organic and an aqueous phase. As a reminder, the solubility is how much of the substance goes into solution per volume.
